Literature values as cited in publication PMC9276671, “A first-in-human Phase I dose-escalation trial of the novel therapeutic peptide, ALM201, demonstrates a favourable safety profile in unselected patients with ovarian cancer and other advanced solid tumours” (British Journal of Cancer, 2022).
No end group written: not given here.

Legend:
HMEC-1 cells = conditions: same concentration range, range of growth factors, ref Investigator brochure (IB); cited from earlier work
Excerpt: (§1) ALM201 also had no effect on cytok ...

HMEC-1 = conditions: protocol Table 3; ref Investigator brochure (IB); read-out: Tube formation IC50; cited from earlier work
Excerpt: as §1

cell cycle = conditions: protocol Table 2 (IC50 (nM)); ref Investigator brochure (IB); cited from earlier work
Excerpt: as §1

cell viability = conditions: protocol Table 2; ref Investigator brochure (IB); cited from earlier work
Excerpt: as §1

[1] = test system: invasion stimulated by VEGF, EGF, FGF, PFGF and FCS; conditions: 10^-9 M (exponent printed displaced), ref Investigator brochure (IB); cited from earlier work
Excerpt: as §1

proliferation = conditions: protocol Table 3; ref Investigator brochure (IB); cited from earlier work
Excerpt: as §1

rat aorta = conditions: ex vivo rat aorta in Matrigel, 7-day period, depending on the parameter assessed; ref Investigator brochure (IB); read-out: IC50 for tubule out-growth parameters; cited from earlier work
Excerpt: as §1

[2] = test system: HT29, DU145 and MDA-231 xenografts; conditions: cited from earlier work
[3] = Dog, 5mg/kg SC, male animals; ref Investigator brochure (IB); cited from earlier work
xenograft = conditions: rat xenograft model, 3 mg/kg; ref Investigator brochure (IB); cited from earlier work
Protocol: page 41: Almac Discovery Confidential 1.5 Rationale for Dose Selection Based on GLP, 28-day, repeat dose toxicology studies in the dog and rat, the NOAEL for ALM201 was not defined at the maximum dose evaluated of 50 mg/kgxiv. Therefore, based on standard allometric scaling based on the FDA guidelines (FDA, 2005 ), it is predicted that a human equivalent dose (HED) range of 8–28 mg/kg could be given without any drug-related adverse effects. Assuming a starting dose calculation based on a 10-fold safety margin in the most conservative model (the rat); the starting dose would be 0.8 mg/kg. Due t ...

Sequence: IRQQPRDPPTETLELEVSPDPAS [ALM201]
- Effect on cell proliferation or cell cycle (HMEC-1 cells): no effect
- IC50 (HMEC-1): 0.082 nM
- Cell cycle arrest (cell cycle): No effect
- Cell viability IC50 (cell viability): No effect
- Invasion [1]: inhibit invasion
- Proliferation IC50 (proliferation): No effect
- IC50 (rat aorta): 0.005 to 0.02 nM
- Tumour size relative to vehicle controls ([2]; 0.3 mg/kg and 3.0 mg/kg daily or three times weekly, HT29, DU145 and MDA-231, ref Investigator brochure (IB)): significant inhibition of tumour size
- Anti-tumour activity in vivo ([2]; single agent or in combination with chemotherapeutic agents, tumour xenograft models, ref Almac Discovery, manuscript in preparation): significant anti-tumour activity
- AUC24 [3]: 7.3 µg·h/mL
- Cmax [3]: 2.03 µg/mL
- Half-life [3]: 2.4 h
- Tmax [3]: 1 h
- Anti-tumour activity (xenograft): significant anti-tumour
